Data reported in PubChem BioAssay (NCI).
“And” between values parts separate entries of the source, which are not always exact repeats. Equal entries are not always repeated.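 Tested at 5 concentrations; 48 h exposure; 96-well plates; endpoints linearly interpolated, else capped at highest concentration. Abbreviation: GI50, concentration required for 50% inhibition of growth. TGI is the concentration that stops growth completely.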

Legend:
Assay in all cases: NCI tumour cell line growth inhibition, 48 h
DMS 273 small cell lung = test system: DMS 273 small cell lung
SNB-78 CNS = test system: SNB-78 CNS
M19-MEL melanoma = test system: M19-MEL melanoma
DLD-1 colon = test system: DLD-1 colon
LXFL 529 NSCLC = test system: LXFL 529 NSCLC
DMS 114 small cell lung = test system: DMS 114 small cell lung
RXF-631 renal = test system: RXF-631 renal
HOP-18 NSCLC = test system: HOP-18 NSCLC
SN12K1 renal = test system: SN12K1 renal
P388 leukemia = test system: P388 leukemia
P388/ADR leukemia = test system: P388/ADR leukemia

SMILES | GI50 (DMS 273 small cell lung) | TGI (DMS 273 small cell lung) | GI50 (SNB-78 CNS) | TGI (SNB-78 CNS) | TGI (M19-MEL melanoma) | TGI (DLD-1 colon) | GI50 (LXFL 529 NSCLC) | TGI (LXFL 529 NSCLC) | GI50 (DMS 114 small cell lung) | TGI (DMS 114 small cell lung) | TGI (RXF-631 renal) | TGI (HOP-18 NSCLC) | TGI (SN12K1 renal) | TGI (P388 leukemia) | TGI (P388/ADR leukemia)
COc1cc(C2c3cc4c(cc3[C@@H](NC3CCN(Cc5ccccc5)CC3)C3COC(=O)[C@H]23)OCO4)cc(OC)c1O (stereo partly specified) | 0.114 µM and 0.0219 µM | 0.558 µM and 0.18 µM | 2.04 µM and 0.887 µM | 6.03 µM and 8.24 µM | 2.1 µM and 1.9 µM | 3.11 µM and 2.26 µM | 1.1 µM and 0.438 µM | 4.4 µM and 2.72 µM | 0.169 µM and 0.0639 µM | 1.96 µM and 0.316 µM | – | – | – | – | –
CCC(=O)OCOc1ccc(/C=C2\CCC(CN(C)C)C2=O)cc1 (stereo unspecified) | – | 15.2 µM | – | 31.5 µM | 11.1 µM | 5.54 µM | – | 9.27 µM | – | 56.4 µM | > 61.2 µM | 28.8 µM | – | – | –
COc1ccc(N=NC2=C(O)CCC2=O)cc1 | – | > 100 µM | – | > 100 µM | > 100 µM | > 100 µM | – | – | – | > 100 µM | > 100 µM | > 100 µM | – | – | –
OC1OCC(COc2cc(Cl)c(Cl)cc2Cl)OC1O (stereo unspecified) | – | > 100 µM | – | 79.7 µM | > 100 µM | > 100 µM | – | > 100 µM | – | 88.3 µM | > 100 µM | 90.8 µM | – | – | –
C=CC1=C(C)C(/C=c2\[nH]/c(=C/c3[nH]c(CC4NC(=O)C(C)/C4=C\C)c(C)c3CCC(=O)O)c(CC(=O)O)c2C)=NC1=O (stereo unspecified) | – | – | – | > 100 µM | > 100 µM | > 100 µM | – | > 100 µM | – | > 100 µM | > 100 µM | > 100 µM | – | – | –
CC1(C)CC(=O)C(CC2C(=O)CCCC2=O)C(=O)C1 | – | > 100 µM | – | > 100 µM | > 100 µM | > 100 µM | – | > 100 µM | – | > 100 µM | – | > 100 µM | – | – | –
O=C1c2ccccc2C(=O)N1CC#CCO | – | > 100 µM | – | > 100 µM | > 100 µM | – | – | > 100 µM | – | – | > 100 µM | – | – | – | –
Cc1cc(-c2ccccc2)nc(Nc2cc3ccccc3[nH]2)n1 | – | – | – | > 100 µM | > 100 µM | > 100 µM | – | > 100 µM | – | > 100 µM | – | – | – | – | –
COc1cc2c(cc1OC)C(Cl)C(c1ccc(Br)cc1)=C2Cl (stereo unspecified) | – | 31.6 µM | – | 32.6 µM | 36 µM | 27.6 µM | – | – | – | 23.3 µM | – | 56.4 µM | 29.4 µM | > 100 µM | > 100 µM
C=CCC1(CN(C)C)CC/C(=C\c2ccc3c(c2)OCO3)C1=O (stereo unspecified) | – | > 100 µM | – | > 100 µM | > 100 µM | 81.1 µM | – | > 100 µM | – | – | 78.4 µM | > 100 µM | – | – | –
CCC(O)CCCCCCCCCCCCCCC(=O)O (stereo unspecified) | – | > 100 µM | – | > 100 µM | > 100 µM | > 100 µM | – | > 100 µM | – | > 100 µM | > 100 µM | > 100 µM | – | – | –
COc1cc2[nH]c3c(c2cc1OC)CCN[C@@]31CC[C@@]2(CC3c4c(cc(OC)c(O)c42)CCN3C)C[C@@H]1OC (stereo partly specified) | – | > 100 µM | – | > 100 µM | 40 µM | > 100 µM | – | > 100 µM | – | 37.2 µM | 25.2 µM | > 81.7 µM | – | – | –
CCO/C=C\C12CCCC1NC(c1ccccc1)(c1ccccc1)O2 (stereo unspecified) | – | > 100 µM | – | > 100 µM | 64.5 µM | > 100 µM | – | 74.5 µM | – | 79.5 µM | – | – | – | – | –
C/C(=N\N=C(N)N)C(CN1CCOCC1)C(c1ccccc1)c1c(O)c2ccccc2oc1=O (stereo unspecified) | – | > 100 µM | – | > 100 µM | > 100 µM | > 100 µM | – | > 100 µM | – | > 100 µM | – | > 100 µM | – | – | –
COc1ccc(C(C2=C(O)CC(C)OC2=O)C2=C(O)CC(C)OC2=O)cc1 (stereo unspecified) | – | > 100 µM | – | > 100 µM | > 100 µM | > 100 µM | – | > 100 µM | – | > 100 µM | > 100 µM | – | – | – | –
CC1C(c2ccccc2)N(C)C(c2ccccc2)C(C)C1(O)c1ccccc1 (stereo unspecified) | – | > 100 µM | – | > 100 µM | > 100 µM | > 100 µM | – | > 100 µM | – | > 100 µM | – | – | – | – | –
Cc1ccc(/C=C2\CCCCC2=O)cc1 | – | > 100 µM | – | > 100 µM | > 100 µM | > 100 µM | – | > 100 µM | – | > 100 µM | > 100 µM | > 100 µM | – | – | –
Cc1cc(N(CCC#N)S(=O)(=O)c2ccccc2)ccc1C=Nc1ccc(C(=O)O)cc1 | – | 17.5 µM | – | 34.7 µM | 7.32 µM | 4.11 µM | – | 3.52 µM | – | 10.1 µM | – | 16.6 µM | – | – | –
COc1cc(/C=C2\[C@@H]3NC(Cc4c(OC)c(C)c(OC)c(OC)c43)C(=O)N2Cc2ccccc2)c(OC)c(C)c1OC | – | > 100 µM | – | – | 77.3 µM | > 100 µM | – | > 100 µM | – | > 100 µM | > 100 µM | > 100 µM | – | – | –
CCCCCCCCCC1CC(=O)OC2=C1C(=O)CCC2 (stereo unspecified) | – | > 100 µM | – | > 100 µM | > 100 µM | > 100 µM | – | > 100 µM | – | > 100 µM | > 100 µM | > 100 µM | – | – | –
CC1(c2ccc(F)cc2)C2C(=O)NC(=O)C1C(=O)NC2=O (stereo unspecified) | – | > 100 µM | – | > 100 µM | > 100 µM | > 100 µM | – | > 100 µM | – | > 100 µM | – | – | – | – | –
